# Molecular target: T1, Tyrosine-protein phosphatase non-receptor type 1 (Homo sapiens, UniProt P18031)
# T1 sequence (P18031 whole entry): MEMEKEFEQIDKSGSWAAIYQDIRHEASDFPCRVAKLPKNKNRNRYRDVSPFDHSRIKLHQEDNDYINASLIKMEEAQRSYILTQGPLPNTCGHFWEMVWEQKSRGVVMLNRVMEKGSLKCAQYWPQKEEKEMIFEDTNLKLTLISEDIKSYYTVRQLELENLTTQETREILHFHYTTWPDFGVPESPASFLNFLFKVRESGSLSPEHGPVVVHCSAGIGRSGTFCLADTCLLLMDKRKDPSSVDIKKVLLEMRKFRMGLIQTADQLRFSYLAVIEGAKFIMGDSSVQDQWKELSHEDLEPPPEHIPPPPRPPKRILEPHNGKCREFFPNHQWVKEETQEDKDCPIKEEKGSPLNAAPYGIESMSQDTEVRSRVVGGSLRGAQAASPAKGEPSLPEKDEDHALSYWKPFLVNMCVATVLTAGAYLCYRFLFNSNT
# Assay: Colorimetric Assay
# Conditions: pH 6.5
# Procedure: Briefly, the tested compounds were solubilized in DMSO and serially diluted into concentrations for the inhibitory test. The assays were carried out in a final volume of 100 µL containing 50 mmol/L MOPS, pH 6.5, 2 mmol/L pNPP, 21 nmol/L GST-PTP1B or GST-TCPTP, and 2% DMSO, and the catalysis of pNPP was continuously monitored on a SpectraMax 340 microplate reader at 405 nm for 3 min at 30 °C
row,IC50 [µM],Structure (SMILES)
1,4.96,"O=C(c1ccc(-c2ccc(C(=O)N3CCC4(CC3)CC(c3ccccc3F)=NO4)cc2)cc1)N1CCC2(CC1)CC(c1ccccc1F)=NO2 [Biphenyl-4,4'-diylbis((3-(2-fluorophenyl)-1-oxa-2,8-diazaspiro[4.5]dec-2-en-8-yl)methanone) (6g)]"
2,5.33,"O=C(c1ccc(-c2ccc(C(=O)N3CCC4(CC3)CC(c3cccc(F)c3)=NO4)cc2)cc1)N1CCC2(CC1)CC(c1cccc(F)c1)=NO2 [Biphenyl-4,4'-diylbis((3-(3-fluorophenyl)-1-oxa-2,8-diazaspiro[4.5]dec-2-en-8-yl)methanone) (6h)]"
3,2.87,"O=C(c1ccc(-c2ccc(C(=O)N3CCC4(CC3)CC(c3ccccc3)=NO4)cc2)cc1)N1CCC2(CC1)CC(c1ccccc1)=NO2 [Biphenyl-4,4'-diylbis((3-phenyl-1-oxa-2,8-diazaspiro[4.5]dec-2-en-8-yl)methanone) (6f)]"

# — BindingDB's records for doi:10.1111/cbdd.12587 (Jiangnan University, 2015)
